Measurements from patent US20230049113A1, “METHODS OF TREATING WHSC1-OVEREXPRESSING CANCERS BY INHIBITING SETD2” (priority 2018, published 2023).
“Also recorded” adds a separate entry of the source.

How the values were obtained:
H3K36me3 / H3K36me2 = experiment: Western blot of H3K36 methyl marks in KMS-34 cells; format: cell-based, human; details: KMS-34, after 14 days
Experimental: Cells were pelleted, washed with ice-cold 1×PBS, resuspended in ice-cold NP40 buffer, and incubated on ice for 30 minutes before sonication (Amplitude 30%/5 sec×1). […] Blots were imaged using the Odyssey Imaging System (LICOR Biosciences).

KMS11 tumors = format: in vivo
Experimental: NOD SCID mice received 1×10^7 cells (0.1 mL cell suspension) subcutaneously in the right flank. […] The maximal treatment length was 28 days. Tumor volumes (twice weekly) and body weight (daily) were recorded throughout the experiment. On day 7 or day 28 during the studies, mice were sampled in a pre-specified fashion. Sampling included nonterminal retro-orbital bleeds and full volume blood collection via terminal cardiac puncture under CO2 anesthesia. Blood samples were processed for plasma, with K2-EDTA as anticoagulant, and PBMCs isolated. The samples were frozen at −80° C. and stored before analysis. Tumors were harvested from specified mice under RNase-free conditions and snap frozen in liquid nitrogen. Bone marrow was flushed from the femur using 1×PBS, strained over a 40 um nylon strainer, and flash frozen. Histones were extracted from tumors, bone marrow, and PBMCs as previously described.
(§1) Fluorescent-Based ELISA Assay (Fluroimmunoassay (FIA) Detection of Anti-Histone H3 Tri-Methyl K36)
Histones were prepared in coating buffer and added directly to high-binding 96 well plates. Plates were left at 4° C. overnight to allow histones to adhere. […] Plates were imaged on the Odyssey Imaging System (LI-COR Biosciences) using both 700 nm and 800 nm channels. The average of the ratio values for each test sample was calculated by dividing the 800 nm (H3K36me3) value by the 700 nm value (total H3) and used to determine the percent of H3K36me3 from vehicle.

KMS-34 cells = experiment: In vitro long-term proliferation (LTP) 14-day assay, KMS-34; format: cell-based, human; details: FIG. 2C, comparison of enantiomers
KMS11 TKO cells = experiment: In vitro long-term proliferation (LTP) 14-day assay, KMS11 TKO; format: cell-based, human; details: KMS11 TKO (non-translocated WHSC1 allele only), 14 days
From the text: In Vitro Long-Term Proliferation (LTP) Assay

[1] = mouse, in vivo
Experimental: Dose Range Finding Studies
(§2) All the procedures related to animal handling, care, and treatment in this study were performed according to the guidelines approved by the Institutional Animal Care and Use Committee of Pharmaron, Beijing, China and following the guidance of the Association for Assessment and Accreditation of Laboratory Animal Care.
(§3) Six to eight-week-old NOD SCID mice were purchased from Beijing HFK Bioscience Co., Ltd. Mice were housed in polycarbonate cages maintained at a temperature of (22+/−3° C.) and relative humidity of 40-70%. Animals had free access to sterile drinking water and irradiation sterilized dry granule food throughout the study.

[2] = 7-day dose range finding study in mice
Experimental: Dose Range Finding Studies
as §2, §3

MM.1S tumors = experiment: MM.1S non-t(4;14) multiple myeloma xenograft; format: in vivo, CB17 SCID mice
Experimental: CB17 SCID mice were inoculated subcutaneously in the right flank with MM.1S tumor cells (5×10^6) in 0.2 mL of PBS mixed with Matrigel (50:50). After 18 days, mice bearing 100 to 150 mm^3 tumors were sorted into treatment groups with mean tumor volumes of 103 mm^3 (n=10 mice per group). […] The maximal treatment length was 23 days. Tumor volumes and body weight were recorded twice weekly throughout the experiment. On day 18 or day 41 during the studies, mice were sampled in a pre-specified fashion. Sampling included nonterminal retro-orbital bleeds and full volume blood collection via terminal cardiac puncture under CO2 anesthesia. Blood samples were processed for plasma, with K2-EDTA as anticoagulant, and PBMCs isolated. The samples were frozen at −80° C. and stored before analysis. Tumors were harvested from specified mice under RNase-free conditions and snap frozen in liquid nitrogen. Bone marrow was flushed from the femur using 1×PBS, strained over a 40 um nylon strainer, and flash frozen.
as §1
Histones were prepared in coating buffer and added directly to high-binding 96 well plates. […] The average of the ratio values for each test sample was calculated by dividing the 800 nm (H3K36me3) value by the 700 nm value (total H3) and used to determine the percent of H3K36me3 from vehicle.

## CC(=O)N1CCN([C@H]2CCC[C@@H](NC(=O)c3cc4c(F)ccc(C)c4[nH]3)C2)CC1 [Cpd. No. 15, N-((1R,3S)-3-(4-acetylpiperazin-1-yl)cyclohexyl)-4-fluoro-7-methyl-1H-indole-2-carboxamide]
H3K36me3 / H3K36me2
  H3K36me2 level: unaffected; also recorded: remained unaltered
  H3K36me3 level: dose-dependent decrease; also recorded: reduced
KMS11 tumors; 31.25 mg/kg and 62.5 mg/kg, 28 days BID
  effect on body weight: minimal effects on body weight
KMS11 tumors; day 28, all doses
  H3K36me3 in histones from tumor (fluorescent-based ELISA): complete reduction
KMS11 tumors; oral, 28 days, dose-dependent
  tumor response: robust tumor growth regression
KMS-34 cells
  proliferation defects: proliferation defects
KMS11 TKO cells
  proliferation effect: no proliferation effects
[1]
  tolerability: very well tolerated
[2]; 62.5 and 125 mg/kg BID, 7 days, versus vehicle control
  body weight: No body weight loss
[2]; oral dosing, 7-day study
  H3K36me3 levels in naïve bone marrow: substantial reduction
MM.1S tumors; BID oral dosing
  H3K36me3 in MM.1S tumor samples (fluorescent-based ELISA): reduction; also recorded: dose dependent decrease
MM.1S tumors; all doses, 23 continuous days BID
  body weight: minimal body weight loss; also recorded: minimal changes in body weight
